Laboratory results as given in patent US20060069132A1, “Azolecarboxamide herbicides” (priority 2004, published 2006).

How the values were obtained:
[1] = test system: pigweed; test: Test C pre-/postemergence herbicide test; assay type: in vivo, Amaranthus retroflexus; details: for Pigweed plant response rating: 500 g ai/ha
Method in brief: (§1)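 Pre/post spray; non-phytotoxic solvent + surfactant. Post-timing 1–4 leaves, 2–18 cm. Read-out: visual % control vs untreated, day 12–14, greenhouse.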

[2] = test system: kochia; test: Test C pre-/postemergence herbicide test; assay type: in vivo, Kochia scoparia; details: for Kochia plant response rating: 500 g ai/ha
Method in brief: as §1

[3] = test system: yellow nutsedge; test: Test C pre-/postemergence herbicide test; assay type: in vivo, Cyperus esculentus; details: for Nutsedge, Yellow plant response rating: 500 g ai/ha
Method in brief: as §1

[4] = test system: velvetleaf; test: Test A pre-/postemergence herbicide test; assay type: in vivo, Abutilon theophrasti
Method in brief: (§2)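 Greenhouse injury scoring (0–100, complete control = 100) at approximately ten days follows simultaneous pre- and postemergence application. Soil received a directed spray after seeding; seedlings of 2–10 cm at the one- to two-leaf stage were sprayed to runoff.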

[5] = test system: morningglory; test: Test C pre-/postemergence herbicide test; assay type: in vivo, Ipomoea coccinea; set-up: key to Plant response rating, Morningglory: 0 = no effect, 100 = complete control; details: for Morningglory plant response rating: 500 g ai/ha
Method in brief: as §1

[6] = test system: soybean; test: Test C pre-/postemergence herbicide test; assay type: in vivo, Glycine max; details: for Soybean plant response rating: 500 g ai/ha
Method in brief: as §1

[7] = test system: lambsquarters; test: Test C pre-/postemergence herbicide test; assay type: in vivo, Chenopodium album; details: for Lambsquarters plant response rating: 500 g ai/ha
Method in brief: as §1

[8] = test system: corn; test: Test C pre-/postemergence herbicide test; assay type: in vivo, Zea mays; details: for Corn plant response rating: 500 g ai/ha
Method in brief: as §1

[9] = test system: Surinam grass; test: Test C pre-/postemergence herbicide test; assay type: in vivo, Urochloa decumbens; details: for Surinam Grass plant response rating: 500 g ai/ha
Method in brief: as §1

[10] = test system: giant foxtail; test: Test A pre-/postemergence herbicide test; assay type: in vivo, Setaria faberi
Method in brief: as §2

[11] = test system: goosegrass; test: Test C pre-/postemergence herbicide test; assay type: in vivo, Eleusine indica; details: for Goosegrass plant response rating: 500 g ai/ha
Method in brief: as §1

[12] = test system: woolly cupgrass; test: Test C pre-/postemergence herbicide test; assay type: in vivo, Eriochloa villosa; details: for Cupgrass, Woolly plant response rating: 500 g ai/ha
Method in brief: as §1

[13] = 125 g ai/ha, scale 0 (no effect) to 100 (complete control), visual, 12 to 14 days, preemergence
[14] = 250 g ai/ha, scale 0 to 100 (0 no effect, 100 complete control), visual, 12 to 14 days, preemergence
[15] = Postemergence, 250 g ai/ha, scale 0 to 100, 0 no effect, 100 complete control
[16] = Preemergence, scale 0 to 100, 0 no effect, 100 complete control
[17] = postemergence, 62 g ai/ha, scale 0 to 100
[18] = Postemergence, 2000 g ai/ha, 0 to 100 scale, 0 no effect, 100 complete control
[19] = Preemergence, 500 g ai/ha, visual rating, 0 to 100 scale (0 no effect, 100 complete control)
[20] = Preemergence, 2000 g ai/ha, 0 to 100 scale, 0 no effect, 100 complete control
[21] = Postemergence, 125 g ai/ha, scale 0 to 100, 0 no effect, 100 complete control
[22] = Postemergence, 500 g ai/ha, 0 to 100 scale, 0 no effect, 100 complete control
[23] = postemergence, 125 g ai/ha, scale 0 to 100

C=CCNC(=O)c1cccc(NC(=O)c2cc(C(C)(C)C)nn2CC)c1 [Compound 46]
Plant response rating (0 = no effect, 100 = complete control), Pigweed ([1]; 62 g ai/ha, preemergence): 20
Plant response rating, Pigweed [1, 13]: 100
Plant response rating, Pigweed [1, 14]: 100
Pigweed plant response rating ([1]; Postemergence, scale 0 to 100): 100
Plant response rating, Pigweed [1, 15]: 100
Pigweed plant response rating [1, 16]: 100
Plant response rating, Pigweed [1, 17]: 100
Plant response rating (0 = no effect, 100 = complete control), Kochia ([2]; 62 g ai/ha, preemergence): 0
Plant response rating, Kochia [2, 13]: 90
Plant response rating, Kochia [2, 14]: 100
Kochia plant response rating ([2]; Postemergence, scale 0 to 100): 100
Plant response rating, Kochia [2, 15]: 100
Kochia plant response rating [2, 16]: 100
Plant response rating, Kochia [2, 17]: 90
Plant response rating (0 = no effect, 100 = complete control), Nutsedge, Yellow ([3]; 62 g ai/ha, preemergence): 0
Plant response rating, Nutsedge, Yellow [3, 13]: 0
Plant response rating, Nutsedge, Yellow [3, 14]: 0
Nutsedge, Yellow plant response rating ([3]; Postemergence, scale 0 to 100): 40
Plant response rating, Nutsedge, Yellow [3, 15]: 20
Nutsedge, Yellow plant response rating [3, 16]: 0
Plant response rating, Nutsedge, Yellow [3, 17]: 20
Plant response rating, Velvetleaf [4, 18]: 75
Velvetleaf plant response rating [4, 19]: 30
Velvetleaf plant response rating [4, 20]: 85
Plant response rating (0 = no effect, 100 = complete control), Morningglory ([5]; 62 g ai/ha, preemergence): 0
Plant response rating, Morningglory [5, 13]: 0
Plant response rating, Morningglory [5, 14]: 90
Morningglory plant response rating ([5]; Postemergence, scale 0 to 100): 80
Plant response rating, Morningglory [5, 15]: 60
Morningglory plant response rating [5, 16]: 90
Plant response rating, Morningglory [5, 17]: 60
Plant response rating (0 = no effect, 100 = complete control), Soybean ([6]; 62 g ai/ha, preemergence): 0
Plant response rating, Soybean [6, 13]: 0
Plant response rating, Soybean [6, 14]: 10
Soybean plant response rating ([6]; Postemergence, scale 0 to 100): 100
Plant response rating, Soybean [6, 15]: 100
Soybean plant response rating [6, 16]: 10
Plant response rating, Soybean [6, 17]: 100
Plant response rating (0 = no effect, 100 = complete control), Lambsquarters ([7]; 62 g ai/ha, preemergence): 100
Plant response rating, Lambsquarters [7, 13]: 100
Plant response rating, Lambsquarters [7, 14]: 100
Lambsquarters plant response rating ([7]; Postemergence, scale 0 to 100): 100
Plant response rating, Lambsquarters [7, 15]: 100
Lambsquarters plant response rating [7, 16]: 100
Plant response rating, Lambsquarters [7, 17]: 80
Plant response rating (0 = no effect, 100 = complete control), Corn ([8]; 62 g ai/ha, preemergence): 0
Plant response rating, Corn [8, 13]: 0
Plant response rating, Corn [8, 14]: 10
Corn plant response rating ([8]; Postemergence, scale 0 to 100): 80
Plant response rating, Corn [8, 21]: 80
Plant response rating, Corn [8, 15]: 80
Corn plant response rating [8, 16]: 10
Plant response rating, Corn [8, 17]: 80
Plant response rating (0 = no effect, 100 = complete control), Surinam Grass ([9]; 62 g ai/ha, preemergence): 10
Plant response rating, Surinam Grass [9, 13]: 30
Plant response rating, Surinam Grass [9, 14]: 60
Surinam Grass plant response rating ([9]; Postemergence, scale 0 to 100): 50
Plant response rating, Surinam Grass [9, 15]: 50
Surinam Grass plant response rating [9, 16]: 80
Plant response rating, Surinam Grass [9, 17]: 40
Plant response rating, Foxtail, Giant [10, 22]: 80
Plant response rating, Foxtail, Giant [10, 18]: 100
Foxtail, Giant plant response rating [10, 19]: 90
Foxtail, Giant plant response rating [10, 20]: 100
Plant response rating (0 = no effect, 100 = complete control), Goosegrass ([11]; 62 g ai/ha, preemergence): 60
Plant response rating, Goosegrass [11, 13]: 90
Plant response rating, Goosegrass [11, 14]: 100
Goosegrass plant response rating ([11]; Postemergence, scale 0 to 100): 80
Plant response rating, Goosegrass [11, 21]: 50
Plant response rating, Goosegrass [11, 15]: 50
Goosegrass plant response rating [11, 16]: 100
Plant response rating, Goosegrass [11, 17]: 40
Plant response rating (0 = no effect, 100 = complete control), Cupgrass, Woolly ([12]; 62 g ai/ha, preemergence): 10
Plant response rating, Cupgrass, Woolly [12, 13]: 10
Plant response rating, Cupgrass, Woolly [12, 14]: 30
Cupgrass, Woolly plant response rating ([12]; Postemergence, scale 0 to 100): 70
Plant response rating, Cupgrass, Woolly [12, 21]: 60
Plant response rating, Cupgrass, Woolly [12, 15]: 70
Cupgrass, Woolly plant response rating [12, 16]: 80
Plant response rating, Cupgrass, Woolly [12, 17]: 40

CCCCOC(=O)c1cccc(NC(=O)c2cc(C(C)(C)C)nn2CC)c1 [Compound 86]
Pigweed plant response rating ([1]; Postemergence, scale 0 to 100): 100
Plant response rating, Pigweed [1, 15]: 100
Plant response rating, Pigweed [1, 23]: 100
Plant response rating, Pigweed [1, 17]: 100
Kochia plant response rating ([2]; Postemergence, scale 0 to 100): 95
Plant response rating, Kochia [2, 15]: 95
Plant response rating, Kochia [2, 23]: 85
Plant response rating, Kochia [2, 17]: 80
Nutsedge, Yellow plant response rating ([3]; Postemergence, scale 0 to 100): 30
Plant response rating, Nutsedge, Yellow [3, 15]: 10
Plant response rating, Nutsedge, Yellow [3, 23]: 5
Plant response rating, Nutsedge, Yellow [3, 17]: 0
Velvetleaf plant response rating [4, 22]: 40
Plant response rating, Velvetleaf [4, 18]: 30
Velvetleaf plant response rating [4, 19]: 0
Velvetleaf plant response rating ([4]; Preemergence, 2000 g ai/ha, visual rating, 0 to 100 scale (0 no effect, 100 complete control)): 10
Morningglory plant response rating ([5]; Postemergence, scale 0 to 100): 85
Plant response rating, Morningglory [5, 15]: 85
Plant response rating, Morningglory [5, 23]: 75
Plant response rating, Morningglory [5, 17]: 10
Soybean plant response rating ([6]; Postemergence, scale 0 to 100): 95
Plant response rating, Soybean [6, 15]: 90
Plant response rating, Soybean [6, 23]: 70
Plant response rating, Soybean [6, 17]: 45
Lambsquarters plant response rating ([7]; Postemergence, scale 0 to 100): 100
Plant response rating, Lambsquarters [7, 15]: 100
Plant response rating, Lambsquarters [7, 23]: 100
Plant response rating, Lambsquarters [7, 17]: 100
Corn plant response rating ([8]; Postemergence, scale 0 to 100): 30
Plant response rating, Corn [8, 15]: 20
Plant response rating, Corn [8, 23]: 20
Plant response rating, Corn [8, 17]: 15
Surinam Grass plant response rating ([9]; Postemergence, scale 0 to 100): 85
Plant response rating, Surinam Grass [9, 15]: 70
Plant response rating, Surinam Grass [9, 23]: 60
Plant response rating, Surinam Grass [9, 17]: 10
Foxtail, Giant plant response rating [10, 22]: 20
Plant response rating, Foxtail, Giant [10, 18]: 20
Foxtail, Giant plant response rating [10, 19]: 0
Foxtail, Giant plant response rating [10, 20]: 0
Goosegrass plant response rating ([11]; Postemergence, scale 0 to 100): 85
Plant response rating, Goosegrass [11, 15]: 80
Plant response rating, Goosegrass [11, 23]: 60
Plant response rating, Goosegrass [11, 17]: 50
Cupgrass, Woolly plant response rating ([12]; Postemergence, scale 0 to 100): 85
Plant response rating, Cupgrass, Woolly [12, 15]: 80
Plant response rating, Cupgrass, Woolly [12, 23]: 70
Plant response rating, Cupgrass, Woolly [12, 17]: 50
